This is an account of results in patent US4623662A, “Antiatherosclerotic ureas and thioureas” (American Cyanamid Company, priority 1985, dated 1986).

The test system of one assay is cholesterol absorption. In words: Inhibition of cholesterol absorption in rats fed 1% cholesterol:0.5% cholic acid diet. Type of assay: in vivo, male Sprague-Dawley rats. Conditions: po, 336 h, rat, 2 weeks; for response vs control in vivo at 0.01 %: dose .01% of the diet; for response vs control in vivo at 0.003 %: dose .003% of the diet. The essentials:
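Male Sprague-Dawley rats (150-170 g) fed 1% cholesterol:0.5% cholic acid diet for 2 weeks with compound at 0.001, 0.003, 0.01 or 0.03% of diet. Serum cholesterol measured enzymatically; liver cholesterol from saponified large-lobe sample after petroleum ether extraction. Liver and serum sterol expressed as percent of untreated controls.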

Assay [1] has as its target T1, fatty acyl CoA:cholesterol acyl transferase (ACAT) (Rattus norvegicus, UniProt Q7TQM4).
T1 construct: the enzyme was derived from microsomes isolated from rat intestinal mucosal cells; from tissue; host or cells: rat intestinal mucosal cells, microsomes
T1 sequence (Q7TQM4 1-524): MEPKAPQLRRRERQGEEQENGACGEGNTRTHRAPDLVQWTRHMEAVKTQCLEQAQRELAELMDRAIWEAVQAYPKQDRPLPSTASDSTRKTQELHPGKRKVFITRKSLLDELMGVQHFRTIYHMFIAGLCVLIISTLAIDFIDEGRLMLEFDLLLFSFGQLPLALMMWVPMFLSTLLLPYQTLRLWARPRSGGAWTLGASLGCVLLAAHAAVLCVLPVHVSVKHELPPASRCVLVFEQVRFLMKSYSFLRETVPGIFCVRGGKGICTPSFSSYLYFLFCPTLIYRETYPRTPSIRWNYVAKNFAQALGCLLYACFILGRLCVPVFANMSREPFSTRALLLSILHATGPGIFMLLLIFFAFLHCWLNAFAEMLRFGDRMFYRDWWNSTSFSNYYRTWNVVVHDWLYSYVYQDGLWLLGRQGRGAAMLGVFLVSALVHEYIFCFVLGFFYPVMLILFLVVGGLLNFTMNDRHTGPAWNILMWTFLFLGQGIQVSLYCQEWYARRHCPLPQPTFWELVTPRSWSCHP
The assay can be described thus: Inhibition of ACAT from microsomes isolated from rat intestinal mucosal cells. Type of assay: biochemical. How it is done:
The compounds were tested for their ability to inhibit ACAT according to the following procedure: rat adrenals were homogenized in 0.2M monobasic potassium phosphate buffer, pH 7.4, and centrifuged at 1,000 times gravity for 15 minutes at 5° C. The supernatant, containing the microsomal fraction, served as the source of the cholesterol-esterifying enzyme, fatty acyl CoA:cholesterol acyl transferase (ACAT). A mixture comprising 50 parts of adrenal supernatant, 10 parts of bovine serum albumin (50 mg/ml), 3 parts of test compound (final concentration 5.2 μg/ml), and 500 parts of buffer was preincubated at 37° C. for 10 minutes. After treatment with 20 parts of oleoyl CoA (^14 C-0.4 μCi), the mixture was incubated at 37° C. for 10 minutes. A control mixture, omitting the test compound, was prepared and treated in the same manner. The lipids from the incubation mixture was extracted into an organic solvent and separated by thin-layer chromatography. The cholesteryl ester fraction was counted in a scintillation counter. This procedure is a modification of that described by Hashimoto, et al., Life Scie., 12 (Part II), 1-12 (1973).
The compounds of this invention were tested in vitro at several concentrations for their ability to inhibit the enzyme fatty acyl CoA:cholesterol acyl transferase (ACAT) using the hereinabove described procedure except that the enzyme was derived from microsomes isolated from rat intestinal mucosal cells rather than rat adrenal cells. The results of this test on representative compounds of this invention are given in Table III in terms of IC50 (μM), that concentration which produced 50% inhibition of the ACAT enzyme.

The target of assay [2] is T2, fatty acyl CoA: cholesterol acyl transferase (ACAT) (Rattus norvegicus, UniProt O70536).
T2 construct: The supernatant, containing the microsomal fraction, served as the source of the cholesterol-esterifying enzyme; from tissue; host or cells: rat adrenals, supernatant of 1,000 x g centrifugation containing the microsomal fraction
T2 sequence (O70536 1-545): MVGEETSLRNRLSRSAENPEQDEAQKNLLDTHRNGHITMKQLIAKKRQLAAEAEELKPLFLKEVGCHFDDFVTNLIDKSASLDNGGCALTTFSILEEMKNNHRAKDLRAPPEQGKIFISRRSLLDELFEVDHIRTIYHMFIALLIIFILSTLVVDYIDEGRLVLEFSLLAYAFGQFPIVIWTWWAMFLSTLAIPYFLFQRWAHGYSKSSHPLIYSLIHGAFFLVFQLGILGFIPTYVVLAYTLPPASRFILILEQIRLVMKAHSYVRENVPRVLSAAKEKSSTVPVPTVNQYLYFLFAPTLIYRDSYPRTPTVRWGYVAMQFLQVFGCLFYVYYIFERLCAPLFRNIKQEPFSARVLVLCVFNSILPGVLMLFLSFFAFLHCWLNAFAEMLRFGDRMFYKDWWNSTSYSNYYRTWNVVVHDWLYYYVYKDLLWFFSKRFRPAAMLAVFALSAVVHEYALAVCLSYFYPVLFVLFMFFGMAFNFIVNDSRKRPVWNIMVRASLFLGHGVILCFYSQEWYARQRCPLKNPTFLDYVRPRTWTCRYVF
In words: Inhibition of fatty acyl CoA:cholesterol acyl transferase (ACAT), rat adrenal enzyme. Type of assay: biochemical. To be noted: rat adrenal ACAT; several concentrations. In short, it runs like this: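 Enzyme source was the microsomal supernatant of rat adrenal homogenate (0.2M potassium phosphate, pH 7.4) with BSA, preincubated with compound (5.2 μg/ml final for single-point) for 10 min at 37° C. Then [14C]oleoyl CoA added, 10 min at 37° C. TLC-separated cholesteryl ester was counted; percent inhibition versus control, IC50 from several concentrations.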

The mark [3] stands for this setting: read-out: LS (liver sterol), percentage of control values.

Where two headings read alike, the source gives them in different places.

On to `CCCCCCCN(Cc1ccc(CC(C)C(C)CC)cc1)C(=O)Nc1c(C)cc(Cl)cc1C` (stereo not shown) [1-(n-Heptyl)-1-[4-(2,3-dimethylpentyl)benzyl]-3-(4-chloro-2,6-dimethylphenyl)urea], for which the response vs control in vivo at 0.01 % came out at 40% with cholesterol absorption (setting [3]) and 43% with cholesterol absorption (read-out: SS (serum sterol), percentage of control values). In assay [1], this compound displayed an IC50 of 20 nM.

Turning to `CCCCCCCN(Cc1ccc(COCCC(C)C)cc1)C(=O)Nc1c(C)cc(Cl)cc1C` [1-(n-Heptyl)-1-[4-(isopentyloxymethyl)benzyl]-3-(4-chloro-2,6-dimethylphenyl)urea], the response vs control in vivo at 0.003 % in the assay on cholesterol absorption (setting [3]) was found to be 47%. In addition, the IC50 in assay [1] turned out to be 130 nM.

With `CCCCCCCN(Cc1ccc(CC2CCCC2)cc1)C(=O)Nc1ccc(F)cc1F` [1-(n-Heptyl)-1-[4-(4-cyclopentylmethyl)benzyl]-3-(2,4-difluorophenyl)urea], in the assay on cholesterol absorption (setting [3]), the response vs control in vivo at 0.01 % worked out at 80%. In assay [1], the IC50 is 140 nM.

In the case of `CCCCCCCN(Cc1ccc(CCCC(=O)O)cc1)C(=O)Nc1c(C)cc(Cl)cc1C` [1-(n-Heptyl)-1-[4-(3-carboxypropyl)benzyl]-3-(4-chloro-2,6-dimethylphenyl)urea], the IC50 in assay [1] is 1020 nM; in assay [2], 7220 nM.

As for `CCCCCCCN(Cc1ccc(COC(C)=O)cc1)C(=O)Nc1ccc(F)cc1F` [1-(n-Heptyl)-1-[4-(acetoxymethyl)benzyl]-3-(2,4-difluorophenyl)urea], the response vs control in vivo at 0.01 % in the assay with cholesterol absorption (setting [3]) is 70%. In assay [1], this compound gave an IC50 of 120 nM.

Turning to `CCCCCCCN(Cc1ccc(CO)cc1)C(=O)Nc1ccc(F)cc1F` [1-(n-Heptyl)-1-[4-(hydroxymethyl)benzyl]-3-(2,4-difluorophenyl)urea], the response vs control in vivo at 0.003 % in the assay on cholesterol absorption (setting [3]) is 81%. Also, the IC50 in assay [1] stood at 200 nM.

Turning to `CCCCCCCN(Cc1ccc(COCCC(C)C)cc1)C(=O)Nc1c(F)cc(F)cc1F` [1-(n-Heptyl)-1-[4-(isopentyloxymethyl)benzyl]-3-(2,4,6-trifluorophenyl)urea], the response vs control in vivo at 0.001 % in the assay on cholesterol absorption (dose .001% of the diet, read-out: LS (liver sterol), percentage of control values) amounted to 75%. The compound further yielded an IC50 in assay [1] of 180 nM.

As to `CCCCCCCN(Cc1ccc(CC[S+]([O-])C(C)C)cc1)C(=O)Nc1ccc(F)cc1F` (stereo not shown) [1-(n-Heptyl)-1-[4-(2-isopropylsulfinylethyl)benzyl]-3-(2,4-difluorophenyl)urea], the response vs control in vivo at 0.003 % with cholesterol absorption (setting [3]) amounted to 84%. The compound further gave an IC50 in assay [1] of 220 nM.

On to `CCCCCCCN(Cc1ccc(CCSC(C)C)cc1)C(=O)Nc1ccc(F)cc1F` [1-(n-Heptyl)-1-[4-(2-isopropylthioethyl)benzyl]-3-(2,4-difluorophenyl)urea], for which the response vs control in vivo at 0.003 % with cholesterol absorption (setting [3]) was 72%. The compound also yielded an IC50 in assay [1] of 210 nM.

What is called IC50 is the concentration at which inhibition is half-maximal. Lower therefore signals higher potency.
